Measurements as given in patent US11667623B2, “Scaffold of adenylyl cyclase inhibitors for chronic pain and opioid dependence” (Purdue Research Foundation, priority 2017, dated 2023).
Like-named read-outs stand apart in the source and are kept apart here.

Columns and labels:
[1] = molecular target: T1, hAC1 (Homo sapiens, UniProt Q08828); assay: Cyclic AMP accumulation (HTRF) in HEK cells stably expressing AC1, stimulated with A23187; format: cell-based; conditions: for inhibition at 30 µM: HEK293; for Selectivity AC1 vs AC8: AC8 IC50/AC1 IC50, without AC8 IC50, estimate based on IC50 ≥30 μM
T1 construct: expressed in transfected cells
Procedure: The screen was carried out using HEK cells stably expressing AC1 (HEK-AC1) and cyclic AMP accumulation was stimulated using the Ca^2+ ionophore, A23187 to selectively activate AC1.
Both AC1 and AC8 are robustly activated by Ca^2+/CaM under a variety of conditions, whereas the effects of Ca^2+/CaM on AC3 are modest and conditional requiring activation by G proteins.
The primary technology we employed to measure cAMP accumulation was a homogenous time-resolved fluorescence (HTRF) assay, the same technology utilized in the primary screen. […]
(§1) Briefly, cryopreserved cells were thawed, resuspended in optiMEM (Life Technologies), and plated in white, flat bottom, low-volume, tissue culture-treated 384 well plates (PerkinElmer, Shelton, Conn.). Plates with cells were incubated in a 37° C. humidified incubator for 1 h. Inhibitors were added and plates were incubated at room temperature for 30 min followed by the addition of AC stimulants in the presence of 500 μM IBMX. Cells were incubated at room temperature for 1 h and cAMP accumulation was measured using Cisbio's cAMP kit (Cisbio Bioassays, Bedford, Mass.) according to the manufacturer's instructions.

[2] = molecular target: T2, hAC8 (Homo sapiens, UniProt P40145); assay: Cyclic AMP accumulation (HTRF) in HEK cells stably expressing AC8, stimulated with A23187; format: cell-based; conditions: for inhibition at 30 µM: HEK293; for hAC8 % Inhib: at 30 μM, negative values indicate a potentiated response
T2 construct: expressed in transfected cells
Procedure: Fresh powders of several robust inhibitors (>90% inhibition) were evaluated in multiple confirmation assays assessing the dose response relationship for inhibiting AC1 and AC8 activity. Confirmation assays used A23817 to selectively stimulate recombinant AC1 or AC8 in the HEK cell background (Cumbay and Watts (2001), J. Pharmacol Exp Ther 297:1201-1399). This approach takes advantage of one unique regulatory property of AC1 for the development of selective inhibitors. Both AC1 and AC8 are robustly activated by Ca^2+/CaM under a variety of conditions, whereas the effects of Ca^2+/CaM on AC3 are modest and conditional requiring activation by G proteins. Previous studies have identified unique Ca^2+/CaM binding domains as one possible site of interaction to achieve AC1 (vs. AC8) selectivity (Masada et al., 2012, Biochemistry 51:7917-7929).
The primary technology we employed to measure cAMP accumulation was a homogenous time-resolved fluorescence (HTRF) assay, the same technology utilized in the primary screen.
Human embryonic kidney (HEK) cells stably expressing AC1, AC8, or AC1 with the MOR were cultured in Dulbecco's Modified Eagle Medium (Life Technologies, Grand Island, N.Y.) supplemented with 5% bovine calf serum (Hyclone, Logan, Utah), 5% fetal clone I (Hyclone), Antibiotic-Antimycotic (Life Technologies), and G418 (Invivogen, San Diego, Calif.) (HEK-AC1), or hygromycin B (Fisher Scientific, Pittsburgh, Pa.) (HEK-AC8), or G418 and puromycin (Sigma-Aldrich) (HEK-AC1/MOR). Chinese hamster ovary (CHO) cells expressing the MOR (CHO-MOR) in the PathHunter® β-Arrestin GPCR assay platform were purchased from DiscoveRx (Freemont, Calif.). Cells were grown in Ham's F12 media supplemented with 1 mM L-glutamine (Thermo Scientific, West Palm Beach, Fla.), 10% fetal bovine serum (Hyclone), 50 Um′ penicillin, 50 μg/ml streptomycin (Life Technologies), G418 and hygromycin B. Cells were grown and frozen as previously described (J. M. Conley, et al., J Vis Exp, e51218 (2014)).
as §1, with “Cyclic AMP accumulation was measured as previously described (Brust, et al., J. Pharmacol. Exp. Ther. 352, 480-493(2015)). Briefly,” for “Briefly,”

[3] = molecular target: T3, hAC2 (Homo sapiens, UniProt Q08462); assay: Cyclic AMP accumulation in stable HEK-AC2 cells, stimulated with 100 nM PMA; format: cell-based; conditions: Table 1, at 30 μM, negative = potentiated, n = 2
T3 construct: expressed in transfected cells
Procedure: as §1, with “Cyclic AMP accumulation was measured as previously described (Brust, et al., J. Pharmacol. Exp. Ther. 352, 480-493(2015)). Briefly,” for “Briefly,”

[4] = molecular target: T4, hAC5 (Homo sapiens, UniProt O95622); assay: Cyclic AMP accumulation in stable HEK-AC5 cells, stimulated with 300 nM forskolin; format: cell-based; conditions: Table 1, at 30 μM, negative = potentiated, n = 2
T4 construct: expressed in transfected cells
Procedure: as §1, with “Cyclic AMP accumulation was measured as previously described (Brust, et al., J. Pharmacol. Exp. Ther. 352, 480-493(2015)). Briefly,” for “Briefly,”

[5] = tested on: HEK-AC1 cells
Procedure: Cell viability assays were conducted with HEK-AC1 cells following plating and compound incubation protocols identical to the procedures described above in “Cyclic AMP assays in cells”. Cell viability was measured as a percentage of vehicle using 2% Triton X-100 (Sigma-Aldrich) as a control. The CellTiter-Glo® Luminescent Cell Viability Assay kit from Promega (Madison, Wis.) was employed to assess cell viability according to the manufacturer's instructions. Luminescence counts were measured using a Synergy 4.

[6] = tested on: chronic pain responses; conditions: mice; literature; cited from earlier work
[7] = tested on: chronic pain responses; conditions: rats; literature; cited from earlier work
[8] = molecular target: T1, hAC1; conditions: Table 1; data from Brust et al. 2017; cited from earlier work
[9] = molecular target: T3, hAC2; conditions: Table 1; at 30 μM; 100 nM PMA; data from Brust et al. 2017; cited from earlier work
[10] = molecular target: T4, hAC5; conditions: Table 1; at 30 μM; 300 nM forskolin; data from Brust et al. 2017; cited from earlier work
[11] = tested on: HEK-AC1 cells; conditions: data from Brust et al. 2017; cited from earlier work
[12] = Table 2, read-out: HEK-AC1 IC50
[13] = Table 1, stable HEK cells, A23187-stimulated cAMP, n ≥ 3
[14] = Table 1, stable HEK cells, A23187-stimulated cAMP, n ≥ 3, read-out: hAC1 IC50
[15] = Table 1, stable HEK cells, A23187-stimulated cAMP, n ≥ 3, read-out: hAC8 IC50

T2 sequence (P40145 whole entry): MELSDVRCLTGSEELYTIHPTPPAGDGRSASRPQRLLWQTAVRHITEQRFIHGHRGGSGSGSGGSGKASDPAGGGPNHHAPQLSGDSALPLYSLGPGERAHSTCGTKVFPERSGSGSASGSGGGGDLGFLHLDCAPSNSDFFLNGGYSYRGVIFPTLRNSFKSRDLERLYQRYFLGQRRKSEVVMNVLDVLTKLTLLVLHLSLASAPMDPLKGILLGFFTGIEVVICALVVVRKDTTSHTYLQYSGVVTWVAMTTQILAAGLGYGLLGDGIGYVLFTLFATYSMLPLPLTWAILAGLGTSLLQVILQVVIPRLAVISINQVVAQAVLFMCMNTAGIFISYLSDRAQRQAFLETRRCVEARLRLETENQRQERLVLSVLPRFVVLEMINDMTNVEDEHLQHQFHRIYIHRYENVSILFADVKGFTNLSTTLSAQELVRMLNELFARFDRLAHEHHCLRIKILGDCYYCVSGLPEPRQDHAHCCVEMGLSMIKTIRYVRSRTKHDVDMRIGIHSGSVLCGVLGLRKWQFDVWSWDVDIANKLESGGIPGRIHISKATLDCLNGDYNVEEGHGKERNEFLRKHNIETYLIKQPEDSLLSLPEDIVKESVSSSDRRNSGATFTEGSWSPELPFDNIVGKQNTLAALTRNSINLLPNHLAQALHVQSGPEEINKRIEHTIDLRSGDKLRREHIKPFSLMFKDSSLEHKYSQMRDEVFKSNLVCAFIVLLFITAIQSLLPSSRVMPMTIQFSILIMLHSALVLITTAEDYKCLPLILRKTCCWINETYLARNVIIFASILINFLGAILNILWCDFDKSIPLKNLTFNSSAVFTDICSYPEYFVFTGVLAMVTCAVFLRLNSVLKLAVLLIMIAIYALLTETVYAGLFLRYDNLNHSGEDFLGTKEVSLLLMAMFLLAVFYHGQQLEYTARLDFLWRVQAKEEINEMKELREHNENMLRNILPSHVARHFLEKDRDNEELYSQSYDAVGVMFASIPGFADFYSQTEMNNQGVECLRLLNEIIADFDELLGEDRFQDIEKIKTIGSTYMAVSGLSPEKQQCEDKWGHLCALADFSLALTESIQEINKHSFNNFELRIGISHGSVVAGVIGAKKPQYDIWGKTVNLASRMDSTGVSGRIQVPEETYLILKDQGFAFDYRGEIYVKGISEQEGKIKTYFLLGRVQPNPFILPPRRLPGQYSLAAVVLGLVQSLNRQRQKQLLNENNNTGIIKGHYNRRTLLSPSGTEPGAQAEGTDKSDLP
T3 sequence (Q08462 whole entry): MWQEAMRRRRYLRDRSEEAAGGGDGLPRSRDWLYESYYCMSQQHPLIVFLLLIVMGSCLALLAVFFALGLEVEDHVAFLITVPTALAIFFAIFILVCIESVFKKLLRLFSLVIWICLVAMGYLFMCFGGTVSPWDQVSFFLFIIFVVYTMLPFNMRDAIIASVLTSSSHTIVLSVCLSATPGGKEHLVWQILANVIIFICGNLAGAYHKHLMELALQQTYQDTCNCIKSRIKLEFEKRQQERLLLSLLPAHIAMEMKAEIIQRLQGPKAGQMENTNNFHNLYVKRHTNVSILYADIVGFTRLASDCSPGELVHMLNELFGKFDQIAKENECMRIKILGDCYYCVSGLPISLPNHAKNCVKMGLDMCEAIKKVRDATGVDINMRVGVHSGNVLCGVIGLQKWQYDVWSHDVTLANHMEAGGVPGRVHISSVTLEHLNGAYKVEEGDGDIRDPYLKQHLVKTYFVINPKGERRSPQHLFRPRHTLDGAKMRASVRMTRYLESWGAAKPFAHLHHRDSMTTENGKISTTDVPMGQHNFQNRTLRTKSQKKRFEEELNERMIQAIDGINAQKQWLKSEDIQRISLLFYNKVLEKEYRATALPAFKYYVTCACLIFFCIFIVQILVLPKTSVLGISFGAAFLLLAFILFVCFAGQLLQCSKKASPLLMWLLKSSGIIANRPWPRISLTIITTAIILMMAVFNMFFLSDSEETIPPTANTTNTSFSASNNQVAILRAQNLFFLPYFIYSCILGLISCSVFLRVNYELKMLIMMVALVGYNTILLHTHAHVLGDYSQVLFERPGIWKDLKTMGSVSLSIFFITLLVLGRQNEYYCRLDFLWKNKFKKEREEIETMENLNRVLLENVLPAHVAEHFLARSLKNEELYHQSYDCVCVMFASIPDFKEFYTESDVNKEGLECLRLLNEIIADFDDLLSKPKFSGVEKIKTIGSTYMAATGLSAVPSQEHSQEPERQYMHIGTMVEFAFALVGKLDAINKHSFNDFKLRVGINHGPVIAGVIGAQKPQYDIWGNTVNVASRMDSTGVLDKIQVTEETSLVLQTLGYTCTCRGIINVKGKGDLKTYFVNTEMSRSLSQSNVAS
T4 sequence (O95622 whole entry): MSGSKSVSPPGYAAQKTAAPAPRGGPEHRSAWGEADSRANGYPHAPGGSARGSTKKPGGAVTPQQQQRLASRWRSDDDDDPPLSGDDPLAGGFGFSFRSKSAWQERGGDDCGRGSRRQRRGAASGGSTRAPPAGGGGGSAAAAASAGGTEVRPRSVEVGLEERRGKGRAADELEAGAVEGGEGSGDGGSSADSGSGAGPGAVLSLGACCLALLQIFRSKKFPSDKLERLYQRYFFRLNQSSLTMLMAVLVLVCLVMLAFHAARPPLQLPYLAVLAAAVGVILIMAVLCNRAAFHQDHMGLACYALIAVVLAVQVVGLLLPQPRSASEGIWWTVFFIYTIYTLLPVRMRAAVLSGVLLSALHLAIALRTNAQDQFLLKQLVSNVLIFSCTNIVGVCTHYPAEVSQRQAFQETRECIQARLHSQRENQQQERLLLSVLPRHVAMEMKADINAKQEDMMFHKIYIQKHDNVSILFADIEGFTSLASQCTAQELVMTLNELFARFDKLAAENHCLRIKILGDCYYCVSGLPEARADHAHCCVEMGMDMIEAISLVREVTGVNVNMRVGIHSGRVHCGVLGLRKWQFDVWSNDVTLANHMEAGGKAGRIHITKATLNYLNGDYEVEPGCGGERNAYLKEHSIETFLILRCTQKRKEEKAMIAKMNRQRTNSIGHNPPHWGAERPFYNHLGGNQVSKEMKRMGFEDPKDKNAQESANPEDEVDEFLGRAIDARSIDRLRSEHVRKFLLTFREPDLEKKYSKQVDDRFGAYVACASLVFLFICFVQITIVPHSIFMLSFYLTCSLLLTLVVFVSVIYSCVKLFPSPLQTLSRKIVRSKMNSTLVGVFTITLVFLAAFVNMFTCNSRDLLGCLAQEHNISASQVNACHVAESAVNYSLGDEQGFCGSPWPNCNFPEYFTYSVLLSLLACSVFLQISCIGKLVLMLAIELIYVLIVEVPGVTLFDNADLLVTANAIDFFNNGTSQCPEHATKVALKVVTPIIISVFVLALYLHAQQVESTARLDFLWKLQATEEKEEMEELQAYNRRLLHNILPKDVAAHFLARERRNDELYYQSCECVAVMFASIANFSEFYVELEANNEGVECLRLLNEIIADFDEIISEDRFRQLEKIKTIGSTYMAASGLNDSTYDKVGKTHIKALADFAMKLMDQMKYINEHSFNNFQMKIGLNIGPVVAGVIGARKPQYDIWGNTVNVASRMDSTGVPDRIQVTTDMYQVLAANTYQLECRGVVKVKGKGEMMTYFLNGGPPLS
T1 sequence (Q08828 whole entry): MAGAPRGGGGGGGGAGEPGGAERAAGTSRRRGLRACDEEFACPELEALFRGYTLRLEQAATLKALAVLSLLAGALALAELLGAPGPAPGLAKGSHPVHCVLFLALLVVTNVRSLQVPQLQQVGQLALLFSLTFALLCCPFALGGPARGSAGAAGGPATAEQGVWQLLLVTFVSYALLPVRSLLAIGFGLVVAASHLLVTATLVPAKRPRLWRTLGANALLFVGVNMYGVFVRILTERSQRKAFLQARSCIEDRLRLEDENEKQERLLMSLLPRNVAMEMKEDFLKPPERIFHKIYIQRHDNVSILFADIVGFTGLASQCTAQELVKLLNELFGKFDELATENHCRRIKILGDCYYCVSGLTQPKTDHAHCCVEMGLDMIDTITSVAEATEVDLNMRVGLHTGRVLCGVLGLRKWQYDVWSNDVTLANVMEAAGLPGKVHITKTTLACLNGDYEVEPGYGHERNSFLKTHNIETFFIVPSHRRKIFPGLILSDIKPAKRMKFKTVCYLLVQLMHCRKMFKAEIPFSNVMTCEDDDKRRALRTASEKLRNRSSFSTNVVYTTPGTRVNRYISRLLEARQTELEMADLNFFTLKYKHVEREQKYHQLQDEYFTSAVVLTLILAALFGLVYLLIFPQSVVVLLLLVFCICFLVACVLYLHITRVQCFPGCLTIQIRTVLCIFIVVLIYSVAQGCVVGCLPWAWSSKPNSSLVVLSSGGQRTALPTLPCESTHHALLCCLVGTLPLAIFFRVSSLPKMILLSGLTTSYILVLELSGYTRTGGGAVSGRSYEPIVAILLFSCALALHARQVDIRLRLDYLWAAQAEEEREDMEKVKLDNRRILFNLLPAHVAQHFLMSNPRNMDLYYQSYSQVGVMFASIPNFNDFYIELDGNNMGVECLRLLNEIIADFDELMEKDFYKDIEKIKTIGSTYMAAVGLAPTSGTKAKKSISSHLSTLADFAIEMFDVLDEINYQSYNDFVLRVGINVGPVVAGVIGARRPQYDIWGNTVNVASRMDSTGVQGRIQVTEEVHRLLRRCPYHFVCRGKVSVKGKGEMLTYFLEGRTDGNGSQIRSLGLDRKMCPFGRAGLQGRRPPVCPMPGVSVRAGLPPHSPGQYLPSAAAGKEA

inhibition at 30 µM ([1]; Table 2) [%]	IC50 [1, 12] [nM]	inhibition at 30 µM ([2]; Table 2) [%]	SMILES	Selectivity AC1 vs AC8 [1]	hAC1 % Inhib [1, 13] [%]	IC50 [1, 14] [nM]	hAC8 % Inhib ([2]; Table 1) [%]	hAC2 % Inhib [3] [%]	hAC5 % Inhib [4] [%]	Viability % Veh [5] [% Veh]	further results
101 ± 0.7	1500 ± 300	9 ± 4	Cc1cc(NC(=O)c2ccccc2F)n(-c2nc(=O)cc(C)[nH]2)n1 [AC10042, 2-Fluoro-N-(3-methyl-1-(6-methyl-4-oxo-1,4-dihydropyrimidin-2-yl)-1H-pyrazol-5-yl)benzamide]								
92 ± 2	10300 ± 2000	16 ± 9	Cc1cc(NC(=O)c2ccco2)n(-c2nc(=O)cc(C)[nH]2)n1 [AC10043, N-(3-methyl-1-(6-methyl-4-oxo-1,4-dihydropyrimidin-2-yl)-1H-pyrazol-5-yl)furan-2-carboxamide]								
98 ± 1	1300 ± 200	26 ± 4	CCc1cc(=O)nc(-n2nc(C)cc2NC(=O)c2cccc(F)c2)[nH]1 [AC10049, N-(1-(6-ethyl-4-oxo-1,4-dihydropyrimidin-2-yl)-3-methyl-1H-pyrazol-5-yl)-3-fluorobenzamide]								IC50 ([2]; Table 2, read-out: HEK-AC8 IC50): 68 ± 10 µM
79 ± 4	16700 ± 1000		CCc1cc(=O)nc(-n2nc(C)cc2NC(=O)C2CC2)[nH]1 [AC10050, N-(1-(6-ethyl-4-oxo-1,4-dihydropyrimidin-2-yl)-3-methyl-1H-pyrazol-5-yl)cyclopropanecarboxamide]								
4 ± 7			Cc1cc(NC(=O)C2CC2)n(-c2nc(=O)cc(C)[nH]2)n1 [AC10051, N-(3-methyl-1-(6-methyl-4-oxo-1,4-dihydropyrimidin-2-yl)-1H-pyrazol-5-yl)cyclopropanecarboxamide]								
94 ± 1	3700 ± 200	9 ± 2	Cc1cc(NC(=O)c2cccc(F)c2)n(-c2nc(=O)cc(C)[nH]2)n1 [AC10057, 3-fluoro-N-(3-methyl-1-(6-methyl-4-oxo-1,4-dihydropyrimidin-2-yl)-1H-pyrazol-5-yl)benzamide]								
99 ± 1	1200 ± 200	19 ± 4	CCc1cc(=O)nc(-n2nc(C)cc2NC(=O)c2ccc(Cl)cc2)[nH]1 [AC10058, 4-chloro-N-(1-(6-ethyl-4-oxo-1,4-dihydropyrimidin-2-yl)-3-methyl-1H-pyrazol-5-yl)benzamide]								
			CC1CC(C)CN(S(=O)(=O)c2ccc(C(=O)Nc3nnc(-c4cccs4)o3)cc2)C1 (stereo not shown) [Compound F0559-0346]	2-fold	99 ± 1	9100 ± 2000	74 ± 13	−6	4	118 ± 2	IC50 [2, 15]: 17 ± 6 µM
			O=C(Nc1nnc(-c2ccc3c(c2)OCCO3)o1)c1ccc(Br)cc1 [Compound F0608-0011]	9-fold	101 ± 1	2000 ± 200	79 ± 1	−7	−10	125 ± 3	IC50 [2, 15]: 18 ± 2 µM
			O=C(Nc1nnc(-c2ccc3c(c2)CCCC3)o1)c1ccccc1 [Compound F0608-0538]	10-fold	101 ± 1	2100 ± 400	76 ± 8	−95	−34	118 ± 6	IC50 [2, 15]: 21 ± 4 µM
			CCc1cc(=O)[nH]c(-n2nc(C)cc2NC(=O)c2ccccc2F)n1 [Compound F2215-0213]		99 ± 1	500 ± 100	20 ± 1	−70	9	101 ± 17	
			CCc1c(C)nc(-n2nc(C)cc2NC(=O)c2ccco2)[nH]c1=O [Compound F2215-0772]	>30-fold	100 ± 1	900 ± 200	34 ± 7	32	13	93 ± 1	
			CSc1ccccc1C(=O)Nc1cc(C)nn1-c1nc2c(c(=O)[nH]1)CCC2 [Compound F2215-0954]	>5-fold	99 ± 1	5900 ± 400	35 ± 8	−185	−21	106 ± 14	
			CSc1cccc(C(=O)Nc2nnc(C3CCCCC3)o2)c1 [Compound F2289-0107]	>4-fold	99 ± 1	7500 ± 2000	31 ± 2	−210	−28	117 ± 1	
			Nc1ncnc2c1ncn2CCNCCCCCO [NB001]								chronic pain responses (inflammatory and neuropathic) [6]: markedly attenuated chronic pain responses; chronic pain responses (inflammatory and neuropathic) [7]: markedly attenuated chronic pain responses
			O=c1cc(C(Cl)(Cl)Cl)oc2ccc(Cl)cc12 [ST034307, 6-chloro-2-(trichloromethyl)-4H-chromen-4-one]								hAC1 % Inhib [8]: 108 ± 10%; hAC2 % Inhib [9]: −142%; hAC5 % Inhib [10]: −44%; Viability % Veh [11]: 85 ± 6 % Veh

SMILES	inhibition at 30 µM ([1]; Table 2) [%]	IC50 [1, 12] [nM]	inhibition at 30 µM ([2]; Table 2) [%]	Selectivity AC1 vs AC8 [1]	hAC1 % Inhib [1, 13] [%]	IC50 [1, 14] [nM]	hAC8 % Inhib ([2]; Table 1) [%]	hAC2 % Inhib [3] [%]	hAC5 % Inhib [4] [%]	Viability % Veh [5] [% Veh]	further results
CCc1cc(=O)nc(-n2nc(C)cc2NC(=O)c2ccccc2F)[nH]1 [AC10048, N-(1-(6-ethyl-4-oxo-1,4-dihydropyrimidin-2-yl)-3-methyl-1H-pyrazol-5-yl)-2-fluorobenzamide]	99 ± 2	580 ± 200	19 ± 11								
